Results published in US10689595B2 (THE REGENTS OF THE UNIVERSITY OF CALIFORNIA, priority 2016, dated 2020).

Experiments:
naïve rats = test: von Frey mechanical allodynia assay in naïve rats; assay type: in vivo, Sprague-Dawley rats; conditions: methyl esters, 1 μg intraplantar, FIG. 6A
Experimental: Male Sprague-Dawley rats weighing approximately 250-300 grams were obtained from Charles River Laboratories. On the day of the test, rats were brought to the testing apparatus and allowed to acclimate. The apparatus is a raised metal mesh platform with clear acrylic chambers to enclose rats but allow them to move freely. After 30 minutes the rats were tested with a von Frey aesthesiometer for their non-treated baseline withdrawal thresholds using a rigid tip on the plantar surface of the rat hind paw though the mesh floor. The scores are grams of force applied to the hind paw required to elicit a withdrawal. The pretreatment baseline score was considered the pain-free baseline (BL) and was assigned 100% for further response calculations.
For the pain assay, 20-HETE methyl ester, 20-HEPE methyl ester, or 22-HDoHE methyl ester, formulated in 10% EtOH in saline, were injected intraplantar in naïve rats. Withdrawal thresholds were measured at 15, 30, 60, 90, 120 and 150 minutes post injection. Reported scores are calculated as a percent of the pretreatment baseline score with an average of 6 rats (3 trials per rat) with SEM for the group.
The methyl esters compounds of 20-HETE, 20-HEPE and 22-HDoHE were tested for their ability to induce mechanical allodynia in vivo. For the assay, naïve rats were injected intraplantar with 1 μg of each ester and tested with an electronic von Frey aesthesiometer.

ovine COX-1 = target: T1, ovine COX-1 (Ovis aries, UniProt P05979); test: COX Fluorescent Inhibitor Screening Assay, COX-1; assay type: biochemical; conditions: read-out: % inhibition at 100 μM COX-1, triplicate
T1 construct: purchased Cayman Chemical 700100
T1 sequence (P05979 25-600): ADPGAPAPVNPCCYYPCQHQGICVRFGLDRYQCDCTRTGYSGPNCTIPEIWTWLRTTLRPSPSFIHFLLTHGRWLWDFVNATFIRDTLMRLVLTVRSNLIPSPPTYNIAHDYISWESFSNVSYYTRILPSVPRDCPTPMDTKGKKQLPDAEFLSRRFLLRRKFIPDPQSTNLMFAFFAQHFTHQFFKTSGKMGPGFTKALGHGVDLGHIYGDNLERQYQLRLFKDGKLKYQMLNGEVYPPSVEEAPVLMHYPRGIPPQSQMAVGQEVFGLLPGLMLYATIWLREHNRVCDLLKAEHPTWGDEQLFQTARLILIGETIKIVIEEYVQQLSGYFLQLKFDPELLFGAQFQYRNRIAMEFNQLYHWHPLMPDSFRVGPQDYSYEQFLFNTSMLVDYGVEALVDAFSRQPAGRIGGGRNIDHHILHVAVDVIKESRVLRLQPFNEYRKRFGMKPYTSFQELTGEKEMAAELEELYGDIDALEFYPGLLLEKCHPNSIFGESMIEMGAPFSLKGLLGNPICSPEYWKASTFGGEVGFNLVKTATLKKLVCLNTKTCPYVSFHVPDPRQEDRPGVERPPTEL
Experimental: (§1) Briefly, to a series of supplied reaction buffer solutions (150 μl, 100 mM Tris-HCl, pH 8.0) with either COX-1 or COX-2 (10 μl) enzyme in the presence of Heme (10 μl) and fluorometric substrate (10 μl) were added 10 μl of 100 μM concentration of the test compound solutions. The reactions were initiated by adding 10 μl of ARA solution and then incubated for two minutes at room temperature. Percent inhibition was calculated by comparison from the 100% initial activity sample value (no inhibitor).

human COX-2 = target: T2, human COX-2 (Homo sapiens, UniProt P35354); test: COX Fluorescent Inhibitor Screening Assay, COX-2; assay type: biochemical; conditions: for inhibition at 100 µM: read-out: % inhibition at 100 μM COX-2, triplicate; for COX-2 activity changes: up to 100 μM concentrations
T2 construct: purchased Cayman Chemical 700100
T2 sequence (P35354 18-604): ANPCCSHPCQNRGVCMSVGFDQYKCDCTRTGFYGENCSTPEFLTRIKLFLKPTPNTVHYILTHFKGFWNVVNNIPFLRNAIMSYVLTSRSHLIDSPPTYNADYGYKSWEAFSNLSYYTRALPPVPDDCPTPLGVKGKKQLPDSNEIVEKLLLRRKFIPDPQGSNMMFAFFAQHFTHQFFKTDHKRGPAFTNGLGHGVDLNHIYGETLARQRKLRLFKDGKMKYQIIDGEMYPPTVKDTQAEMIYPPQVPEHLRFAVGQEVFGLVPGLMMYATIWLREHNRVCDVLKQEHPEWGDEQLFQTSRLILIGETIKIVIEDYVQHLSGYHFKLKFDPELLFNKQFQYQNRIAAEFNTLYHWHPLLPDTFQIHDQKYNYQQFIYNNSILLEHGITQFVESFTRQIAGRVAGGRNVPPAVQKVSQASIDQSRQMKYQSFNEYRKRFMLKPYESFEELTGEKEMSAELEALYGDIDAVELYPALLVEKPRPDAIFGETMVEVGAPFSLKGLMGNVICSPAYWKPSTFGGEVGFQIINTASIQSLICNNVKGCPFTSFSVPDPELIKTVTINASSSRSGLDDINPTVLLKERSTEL
Experimental: as §1

mTRPV1 = target: T3, mTRPV1 (Mus musculus, UniProt Q704Y3); test: calcium influx assay in HEK293 cells heterologously expressing mTRPV1; assay type: cell-based; conditions: for concentration that produced significant Ca2+ influx: HEK293 cells expressing mTRPV1, fluo-4, FIG. 4; for TRPV1 channel activation: at low doses
T3 construct: GFP; expressed in transfected cells; host or cells: HEK-293 (transient transfection; plasmid a gift from Jie Zheng, UC Davis)
Experimental: The mTRPV1 plasmid that contains a GFP tag was a generous gift from Professor Jie Zheng at University of California, Davis. The HEK-293 cells were cultured in a poly-D-lysine coated T75 dish at an initial density of 4×10^5 cells/dish and maintained in culture medium (DMEM+10% FBS+100 units/ml peniclillin, 0.1 mg/ml streptomycine) in an incubator at 37° C. with 5% CO2 and 95% humidity. At 50% confluence, the HEK-293 cells were transfected with 10 μg of mTRPV1 plasmid using Lipofectamine 2000 (Invitrogen Corporation, Carlsbad, Calif., USA) in antibiotic—as well as serum-free culture medium. After 6 hour incubation, the serum-free medium was replaced with normal culture medium and the cells were cultured for another 48 hours. The transfection efficiency was determined by examined the GFP expression as well as the Ca^2+ response after exposure to capsaicin.
The HEK-293 cells transiently transfected mTRPV1 were planted onto poly-D-lysine (Sigma-Aldrich, St. Louis, Mo., USA) coated black-well, clear-bottom, 96-well plates (Corning, Coring, N.Y., USA) at an initial density of 40,000/well. The cells were then cultured in DMEM medium for 18-24 hours as described previously (Ref. 38). Briefly, the growth medium was removed and replaced with dye loading buffer (100 μl/well) containing 4 μM fluo-4 and 0.5 mg/ml BSA in Locke's buffer (in mM: 8.6 HEPES, 5.6 KCl, 154 NaCl, 5.6 Glucose, 1.0 MgCl2, 2.3 CaCl2), 0.0001 glycine, pH 7.4). After 1 hour incubation in dye loading buffer, cells were washed four times in fresh Locke's buffer and transferred to the plate chamber of FLIPR^TETRA (Molecular Devices, Sunnyvale, Calif., USA). The final volume of Locke's buffer in each well was 150 μl. The cells were excited at 488 nm and Ca^2+ bound fluo-4 emission at 535 nm was recorded. Fluorescence readings were taken every 1 second for 120 s to establish the baseline. Different concentrations (4×) of compounds were added to the cells from a compound plate in a volume of 50 μl at a rate of 30 μl/s using a programmable robotic system. The fluorescence signals were recorded for an additional 380 seconds. All the experiments were performed at room temperature. The Ca^2+ data were represented as Fluo-4 fluorescence units (F/Fo). For quantifying the Ca^2+ response, the area under the curve (AUC) was used. Graphing and statistical analyses were performed using GraphPad Prism software (GraphPad Software Inc., San Diego, Calif.). Statistical significance was determined by an ANOVA and, where appropriate, a Dunnett's multiple comparison test and p values below 0.05 was considered statistically significant.
The influence of 20-HETE, 20-HEPE, and 22-HDoHe on mTRPV1 was measured in HEK293 cells heterologously expressed mTRPV1 using calcium influx assay. […] The discrepancy between previous study and current study is likely due to the fact that the mTRPV1 was used in the current study, while the hTRPV1 was used in the previous study.

hTRPV1 = hTRPV1 (Homo sapiens, UniProt Q8NER1); conditions: 10 μM, previous study (Ref 24); cited from earlier work
[1] = test system: human umbilical vein endothelial cells (HUVECs); test: VEGF-induced endothelial cell migration (Boyden chamber); assay type: cell-based; conditions: dose range of 1-3 μM, 10 ng/mL VEGF, 6 hours
Experimental: FIG. 8 is a series of photographs showing 22-HDoHE inhibition of VEGF-induced endothelial cell migration in HUVEC cells. The cell migration assay was conducted using a standard Boyden chamber assay with 10 ng/mL VEGF as chemoattractant, and the assay time was 6 hours.
It was tested whether 22-HDoHE has direct anti-angiogenic actions in primary endothelial cells, using a VEGF-induced endothelial cell migration in human umbilical vein endothelial cells (HUVECs).

[2] = test system: VEGF-induced angiogenesis; test: Matrigel plug angiogenesis assay; assay type: in vivo; conditions: co-addition in Matrigel with 100 ng VEGF, C57BL/6 mice
Experimental: FIG. 7A is a simplified scheme of the animal experiment: Matrigel containing VEGF (angiogenesis inducer) and 22-HDoHE or vehicle were injected into C57BL/6 mice, after 4-7 days of treatment, the Matrigel plugs were dissected and subjected to angiogenesis analysis.
Angiogenesis, the process of formation of new blood vessels from pre-existing vessels, has been established to be critical for multiple human diseases including cancer. Vascular endothelial growth factor (VEGF) is the most important angiogenesis inducer.

[3] = test system: human dermal lymphatic endothelial cells (HMVEC-dLy); test: VEGF-C-induced tube formation; assay type: cell-based; conditions: dose-dependent manner, FIG. 10
Experimental: The effect of 22-HDoHE on lymphangiogenesis was evaluated using a vascular endothelial growth factor-C (VEGF-C)-induced tube formation in human dermal lymphatic endothelial cells (HMVEC-dLy).

HMVEC-dLy = test: complete medium-induced HMVEC-dLy migration, Boyden chamber assay; assay type: cell-based, human; conditions: FIG. 11
B16F10 melanoma = B16F10 melanoma primary tumor growth model; assay type: in vivo; conditions: 0.5 mg/kg/day by mini-pumps, 2-wk treatment, C57BL/6 mice
Experimental: FIG. 9 is a photograph and a bar graph showing systematic treatment of 0.5 mg/kg/day 22-HDoHE inhibited ˜50% of B16F10 melanoma growth in C57BL/6 male mice. B16F10 melanoma cells (200,000 cells per mouse) were sub-Q injected into C57BL/6 mice to induce primary tumor growth of melanoma, then the mice were treated with 22-HDoHE using mini-pumps at a dose of 0.5 mg/kg/day. After 2-wk treatment, the mice were sacrificed to dissect the tumors for analysis.
Angiogenesis has been well established to play an essential role in cancer, through providing nutrients and oxygen to the tumors tissues to promote tumor progression. The effect of 22HDoHE on primary tumor growth in mice was studied using a highly aggressive B16F10 melanoma model in C57BL/6 mice.

T3 sequence (Q704Y3 whole entry): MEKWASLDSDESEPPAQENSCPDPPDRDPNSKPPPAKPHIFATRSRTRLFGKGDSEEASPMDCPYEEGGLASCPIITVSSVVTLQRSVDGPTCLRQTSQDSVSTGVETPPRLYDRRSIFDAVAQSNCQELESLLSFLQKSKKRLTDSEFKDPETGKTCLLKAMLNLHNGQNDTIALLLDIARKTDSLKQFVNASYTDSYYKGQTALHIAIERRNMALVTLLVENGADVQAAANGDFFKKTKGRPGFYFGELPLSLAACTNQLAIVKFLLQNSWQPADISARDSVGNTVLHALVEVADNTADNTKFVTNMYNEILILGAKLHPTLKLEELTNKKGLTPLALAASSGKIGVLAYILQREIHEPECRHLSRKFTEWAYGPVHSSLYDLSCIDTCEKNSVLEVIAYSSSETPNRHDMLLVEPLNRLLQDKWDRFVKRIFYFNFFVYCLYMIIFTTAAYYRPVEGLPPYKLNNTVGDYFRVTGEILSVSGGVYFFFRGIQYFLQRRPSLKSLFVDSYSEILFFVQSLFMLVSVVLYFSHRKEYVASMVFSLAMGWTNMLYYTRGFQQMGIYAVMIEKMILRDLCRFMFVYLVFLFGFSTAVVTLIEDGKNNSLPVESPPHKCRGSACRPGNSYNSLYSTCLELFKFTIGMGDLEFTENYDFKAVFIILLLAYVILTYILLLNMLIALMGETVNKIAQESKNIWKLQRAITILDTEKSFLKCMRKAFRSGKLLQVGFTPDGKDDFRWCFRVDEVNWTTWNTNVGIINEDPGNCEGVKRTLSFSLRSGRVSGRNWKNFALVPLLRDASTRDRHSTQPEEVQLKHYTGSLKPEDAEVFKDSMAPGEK
hTRPV1, sequence (Q8NER1 whole entry): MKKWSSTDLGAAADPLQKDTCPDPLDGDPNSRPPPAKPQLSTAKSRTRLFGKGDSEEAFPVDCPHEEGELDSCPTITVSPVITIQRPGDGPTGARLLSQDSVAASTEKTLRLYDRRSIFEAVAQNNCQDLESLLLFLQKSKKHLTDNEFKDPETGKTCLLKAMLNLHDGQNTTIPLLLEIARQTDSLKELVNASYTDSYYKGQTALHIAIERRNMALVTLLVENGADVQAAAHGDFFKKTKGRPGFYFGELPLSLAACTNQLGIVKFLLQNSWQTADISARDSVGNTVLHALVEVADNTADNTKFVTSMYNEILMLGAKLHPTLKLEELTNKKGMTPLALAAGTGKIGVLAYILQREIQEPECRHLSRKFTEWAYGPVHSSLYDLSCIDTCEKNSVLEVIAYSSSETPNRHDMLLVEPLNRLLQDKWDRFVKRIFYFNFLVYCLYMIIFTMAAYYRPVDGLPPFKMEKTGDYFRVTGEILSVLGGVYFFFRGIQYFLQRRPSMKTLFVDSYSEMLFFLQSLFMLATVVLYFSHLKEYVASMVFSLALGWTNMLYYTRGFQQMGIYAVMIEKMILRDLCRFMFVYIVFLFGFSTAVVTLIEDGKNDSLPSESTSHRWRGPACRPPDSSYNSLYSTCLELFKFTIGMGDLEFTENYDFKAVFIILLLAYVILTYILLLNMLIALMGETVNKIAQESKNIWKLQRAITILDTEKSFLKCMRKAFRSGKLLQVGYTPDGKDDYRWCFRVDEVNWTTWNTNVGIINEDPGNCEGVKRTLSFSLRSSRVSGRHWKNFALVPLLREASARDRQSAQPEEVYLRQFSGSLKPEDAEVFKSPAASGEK

With COC(=O)CCC/C=C\C/C=C\C/C=C\C/C=C\C/C=C\CCO as the compound, how does the “nociceptive (withdrawal) thresholds, von Frey” value (shortened to “nociceptive”) (naïve rats) read?
The value was “neither 20-HEPE nor 22-HDoHE induced a similar decrease in thresholds”.

For COC(=O)CCC/C=C\C/C=C\C/C=C\C/C=C\CCCCCO, which “nociceptive” value (naïve rats) is on record?
Its value is “decreased nociceptive thresholds acutely”.

Which results are given for O=C(O)CCC/C=C\C/C=C\C/C=C\C/C=C\C/C=C\CCO [20-HEPE, (5Z,8Z,11Z,14Z,17Z)-20-Hydroxyicosa-5,8,11,14,17-pentaenoic Acid]?
inhibition at 100 µM (ovine COX-1): 37.1%; inhibition at 100 µM (human COX-2): 0%; COX-2 activity changes (human COX-2; FIG. 5): No COX-2 activity changes; concentration that produced significant Ca2+ influx (mTRPV1): 10 µM; TRPV1 channel activation (mTRPV1): did not activate TRPV1 channels

Which results are given for O=C(O)CCC/C=C\C/C=C\C/C=C\C/C=C\CCCCCO [20-HETE, (5Z,8Z,11Z,14Z)-20-Hydroxyicosa-5,8,11,14-tetraenoic Acid]?
inhibition at 100 µM (ovine COX-1): 27.5%; inhibition at 100 µM (human COX-2): 0%; COX-2 activity changes (human COX-2; FIG. 5): No COX-2 activity changes; mTRPV1 activation (mTRPV1; at or below concentration of 10 uM): does not appear to be an mTRPV1 activator; Ca2+ response (mTRPV1; at the concentrations examined, FIG. 4): marginal Ca^2+ response; hTRPV1 activation (hTRPV1): activates hTRPV1

For O=C(O)CC/C=C\C/C=C\C/C=C\C/C=C\C/C=C\C/C=C\CCO [22-HDoHE, (4Z,7Z,10Z,13Z,16Z,19Z)-22-Hydroxydocosa-4,7,10,13,16,19-hexaenoic Acid], which inhibition at 100 µM (ovine COX-1) is on record?
Its inhibition at 100 µM is 38.1%.

And the “VEGF-induced HUVECs migration” value [1]?
The value was “significantly inhibited”.

And the inhibition at 100 µM (human COX-2)?
The inhibition at 100 µM was 1%.

What about the COX-2 activity changes (human COX-2; FIG. 5) of the same compound?
The COX-2 activity changes was “No COX-2 activity changes”.

And the “VEGF-induced angiogenesis in Matrigel plugs” value [2]?
The value was “almost abolished VEGF-induced angiogenesis”.

What about the “concentration that produced significant Ca2+ influx” value (mTRPV1) of the same compound?
The value was ~3 µM.

And the TRPV1 channel activation (mTRPV1)?
The TRPV1 channel activation was “did not activate TRPV1 channels”.

And the “VEGF-C-induced tube formation in HMVEC-dLy cells” value [3]?
The value was “significantly inhibited”.

What about the “complete medium-induced HMVEC-dLy migration” value (HMVEC-dLy) of the same compound?
The value was “significantly inhibit”.

What about the “reduction of B16F10 tumor growth” value (B16F10 melanoma) of the same compound?
Its value is ~50%.

With COC(=O)CC/C=C\C/C=C\C/C=C\C/C=C\C/C=C\C/C=C\CCO [22-HDoHE] as the compound, how does the “nociceptive” value (naïve rats) read?
Its value is “neither 20-HEPE nor 22-HDoHE induced a similar decrease in thresholds”.

With CC/C=C\C/C=C\C/C=C\C/C=C\C/C=C\CCCC(=O)O [EPA, eicosapentaenoic acid, reference compound] as the compound, how does the “COX inhibitory activity (% inhibition), COX-2” value (human COX-2; FIG. 5) read?
The value was “Less than 0%”.
